Holding throughout (assay type): biochemical
Test [1] has as its target T1, recombinant human MAO-A (monoamine oxidase-A) (Homo sapiens, UniProt P21397).
T1 construct: purchased Sigma-Aldrich
T1 sequence (P21397 1-527): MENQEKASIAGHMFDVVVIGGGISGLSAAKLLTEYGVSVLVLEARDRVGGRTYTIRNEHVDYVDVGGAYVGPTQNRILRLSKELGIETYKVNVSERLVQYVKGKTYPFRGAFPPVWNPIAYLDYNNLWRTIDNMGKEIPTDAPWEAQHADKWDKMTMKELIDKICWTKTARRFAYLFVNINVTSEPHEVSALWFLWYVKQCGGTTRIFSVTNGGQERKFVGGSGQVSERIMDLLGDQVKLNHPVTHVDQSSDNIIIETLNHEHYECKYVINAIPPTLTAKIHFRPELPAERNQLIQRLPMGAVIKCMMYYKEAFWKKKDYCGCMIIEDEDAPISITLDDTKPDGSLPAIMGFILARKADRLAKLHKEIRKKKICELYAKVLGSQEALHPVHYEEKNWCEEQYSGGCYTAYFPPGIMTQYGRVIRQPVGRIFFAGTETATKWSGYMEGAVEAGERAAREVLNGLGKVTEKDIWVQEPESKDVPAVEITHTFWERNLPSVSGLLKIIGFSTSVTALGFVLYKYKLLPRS
The test can be described thus: Activity evaluation on recombinant human MAO-A (Amplex Red/HRP-coupled assay, 0.5 mM tyramine substrate). Particulars: read-out: Inhibitory Activity (IC50, nM) MAO-A. In short, it runs like this: (§1)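 Enzyme activity was measured as fluorescence rate (ex 544, em 590 nm) from resorufin formed by HRP-coupled H2O2 oxidation of 200 uM Amplex Red. Compounds were first incubated 30 min at 37 °C with enzyme at pH 7.4; substrates were 0.5 mM tyramine (MAO-A), 1 mM benzylamine (MAO-B) and 1 mM putrescine (DAO).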

The target of test [2] is T2, recombinant human MAO-B (monoamine oxidase-B) (Homo sapiens, UniProt P27338).
T2 construct: purchased Sigma-Aldrich
T2 sequence (P27338 1-520): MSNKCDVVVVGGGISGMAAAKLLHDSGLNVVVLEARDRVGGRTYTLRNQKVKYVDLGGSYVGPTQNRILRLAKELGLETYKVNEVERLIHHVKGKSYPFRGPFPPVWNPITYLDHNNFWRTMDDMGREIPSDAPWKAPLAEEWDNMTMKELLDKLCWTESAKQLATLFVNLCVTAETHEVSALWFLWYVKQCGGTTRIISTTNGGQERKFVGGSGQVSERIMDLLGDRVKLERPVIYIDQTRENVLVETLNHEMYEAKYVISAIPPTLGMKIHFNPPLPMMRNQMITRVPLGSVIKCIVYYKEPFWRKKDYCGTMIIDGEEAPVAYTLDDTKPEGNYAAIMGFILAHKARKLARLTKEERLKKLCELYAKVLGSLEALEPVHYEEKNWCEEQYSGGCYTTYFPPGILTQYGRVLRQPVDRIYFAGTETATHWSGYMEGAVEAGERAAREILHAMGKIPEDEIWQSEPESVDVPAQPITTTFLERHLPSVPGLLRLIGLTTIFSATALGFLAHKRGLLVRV
In words: Activity evaluation on recombinant human MAO-B (Amplex Red/HRP-coupled assay, 1 mM benzylamine substrate). Particulars: read-out: Inhibitory Activity (IC50, nM) MAO-B. In a few lines:
as §1

For another test, the target named is T3, recombinant human VAP-1 (Homo sapiens, UniProt Q16853).
T3 construct: purchased R&D systems
T3 sequence (Q16853 1-763): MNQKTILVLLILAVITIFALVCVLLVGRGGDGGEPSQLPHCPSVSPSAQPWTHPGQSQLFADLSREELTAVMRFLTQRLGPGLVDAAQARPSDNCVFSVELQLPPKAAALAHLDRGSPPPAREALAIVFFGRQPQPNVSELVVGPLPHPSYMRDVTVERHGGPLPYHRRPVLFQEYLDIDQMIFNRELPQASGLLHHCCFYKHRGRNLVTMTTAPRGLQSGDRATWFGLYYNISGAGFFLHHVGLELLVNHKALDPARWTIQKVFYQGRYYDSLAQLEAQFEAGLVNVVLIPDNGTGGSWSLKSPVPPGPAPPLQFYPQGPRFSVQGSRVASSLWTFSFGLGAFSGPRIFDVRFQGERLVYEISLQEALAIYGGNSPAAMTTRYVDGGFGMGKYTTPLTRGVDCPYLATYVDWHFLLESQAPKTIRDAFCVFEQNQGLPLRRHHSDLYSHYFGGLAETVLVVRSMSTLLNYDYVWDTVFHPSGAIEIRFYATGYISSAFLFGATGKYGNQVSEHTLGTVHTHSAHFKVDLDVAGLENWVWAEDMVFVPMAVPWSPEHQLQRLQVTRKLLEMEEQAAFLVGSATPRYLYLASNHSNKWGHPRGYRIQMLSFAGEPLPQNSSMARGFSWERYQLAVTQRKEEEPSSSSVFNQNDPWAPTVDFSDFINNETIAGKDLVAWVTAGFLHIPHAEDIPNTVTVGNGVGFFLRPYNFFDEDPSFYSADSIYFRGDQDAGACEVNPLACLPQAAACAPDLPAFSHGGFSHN
In words: Activity evaluation on recombinant human VAP-1 (Amplex Red/HRP-coupled hydrogen peroxide assay, benzylamine substrate). Conditions: read-out: Inhibitory Activity (IC50, nM) human VAP-1. In short, it runs like this: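 Recombinant human VAP-1 in 50 mM sodium phosphate pH 7.4 preincubated 30 min at 37 °C with compound (8-point 1:3 series, <1% DMSO), then 1 mM benzylamine, 200 uM Amplex Red, 1 U/mL HRP added. H2O2-derived resorufin fluorescence (ex 544/em 590) followed 1–2 h; IC50 from four-parameter fit of rate inhibition.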

Test [3] addresses T4, recombinant human DAO (diamine oxidase) (Homo sapiens, UniProt P19801).
T4 construct: purchased R&D systems
T4 sequence (P19801 20-751): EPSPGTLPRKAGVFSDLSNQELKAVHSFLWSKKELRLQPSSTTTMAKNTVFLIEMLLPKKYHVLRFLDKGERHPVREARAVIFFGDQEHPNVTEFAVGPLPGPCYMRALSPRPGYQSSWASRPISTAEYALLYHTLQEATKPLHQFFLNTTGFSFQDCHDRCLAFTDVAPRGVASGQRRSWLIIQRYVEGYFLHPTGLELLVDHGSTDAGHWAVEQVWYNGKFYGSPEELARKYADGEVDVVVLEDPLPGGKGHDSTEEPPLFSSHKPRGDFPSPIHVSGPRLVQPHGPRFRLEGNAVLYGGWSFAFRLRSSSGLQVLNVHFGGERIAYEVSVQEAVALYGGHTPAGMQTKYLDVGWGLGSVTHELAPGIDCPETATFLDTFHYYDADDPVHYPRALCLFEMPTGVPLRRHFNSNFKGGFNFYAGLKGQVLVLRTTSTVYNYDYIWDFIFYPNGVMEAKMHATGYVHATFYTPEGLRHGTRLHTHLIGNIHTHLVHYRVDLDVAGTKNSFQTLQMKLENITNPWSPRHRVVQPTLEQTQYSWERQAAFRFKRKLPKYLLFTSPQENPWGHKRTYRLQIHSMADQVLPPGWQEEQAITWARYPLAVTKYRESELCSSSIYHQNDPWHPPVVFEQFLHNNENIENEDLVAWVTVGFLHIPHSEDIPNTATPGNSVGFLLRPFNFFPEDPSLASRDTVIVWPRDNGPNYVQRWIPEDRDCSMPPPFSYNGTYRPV
In words: Activity evaluation on recombinant human DAO (Amplex Red/HRP-coupled assay, 1 mM putrescine substrate). Conditions: read-out: Inhibitory Activity (IC50, nM) DAO. In a few lines:
as §1

[4] abbreviates: recombinant human VAP-1, benzylamine substrate.
The mark [5] stands for this setting: recombinant human VAP-1, 30 min preincubation at 37° C., 1 mM benzylamine.

Among the data in patent US11168073B2, “3,3-difluoroallylamines or salts thereof and pharmaceutical compositions comprising the same” (YUHAN CORPORATION, priority 2018, dated 2021) are IC50 values, retold here.

Counter-ions that a name gives are not always drawn. Like-named read-outs stand apart in the source and are kept apart here.

In general, IC50 refers to the concentration needed to halve the response being measured.

On to `CN1C(=O)CCc2cc(-c3ccccc3Cn3cnn(CC(CN)=C(F)F)c3=O)ccc21` [Example 284, 6-[2-[[1-[2-(aminomethyl)-3,3-difluoro-allyl]-5-oxo-1,2,4-triazol-4-yl]methyl]phenyl]-1-methyl-3,4-dihydroquinolin-2-one trifluoroacetate], for which the IC50 in test [1] (0.5 mM tyramine substrate) is more than 100000 nM; in test [2] (1 mM benzylamine substrate), more than 100000 nM; at recombinant human VAP-1 (setting [4]), 148 nM; in test [3] (1 mM putrescine substrate), 66400 nM.
Take `Cc1cc(-c2ccc(C(F)(F)F)nc2)cnc1-n1cnn(CC(CN)=C(F)F)c1=O` [Example 70, 2-[2-(aminomethyl)-3,3-difluoro-allyl]-4-[3-methyl-5-[6-(trifluoromethyl)-3-pyridyl]-2-pyridyl]-1,2,4-triazol-3-one Trifluoroacetate]: the concentration for half-maximal inhibition (IC50) in test [1] (0.5 mM tyramine) is more than 100000 nM; in test [2] (1 mM benzylamine), 5800 nM; at recombinant human VAP-1 (setting [5]), 0.7 nM; in test [3] (1 mM putrescine), 1500 nM.
Take `NCC(Cn1ncn(-c2cccc(-c3ccc4c(c3)NC(=O)OC4)n2)c1=O)=C(F)F` [Example 219, 7-[6-[1-[2-(aminomethyl)-3,3-difluoro-allyl]-5-oxo-1,2,4-triazol-4-yl]-2-pyridyl]-1,4-dihydro-3,1-benzoxazin-2-one Trifluoroacetate]: the IC50 in test [1] (0.5 mM tyramine substrate) was more than 100000 nM; in test [2] (1 mM benzylamine substrate), 68500 nM; at recombinant human VAP-1 (setting [4]), 0.2 nM; in test [3] (1 mM putrescine substrate), 47 nM.
As to `Cc1cc(-c2ccc3c(c2)CCC(=O)N3C)cnc1-n1cnn(CC(CN)=C(F)F)c1=O` [Example 74, 6-[6-[1-[2-(aminomethyl)-3,3-difluoro-allyl]-5-oxo-1,2,4-triazol-4-yl]-5-methyl-3-pyridyl]-1-methyl-3,4-dihydroquinolin-2-one Trifluoroacetate], the half-inhibitory concentration (IC50) in test [1] (0.5 mM tyramine) was more than 100000 nM; in test [2] (1 mM benzylamine), 7500 nM; at recombinant human VAP-1 (setting [5]), 0.3 nM; in test [3] (1 mM putrescine), 6500 nM.
As for `NCC(Cn1ncn(Cc2cc(-c3ccc4c(c3)COC(=O)N4)cs2)c1=O)=C(F)F` [Example 191, 6-[5-[[1-[2-(aminomethyl)-3,3-difluoro-allyl]-5-oxo-1,2,4-triazol-4-yl]methyl]-3-thienyl]-1,4-dihydro-3,1-benzoxazin-2-one Trifluoroacetate], the concentration for half-maximal inhibition (IC50) in test [1] (0.5 mM tyramine substrate) was more than 100000 nM; in test [2] (1 mM benzylamine substrate) it was 44000 nM; at recombinant human VAP-1 (setting [4]) it was 0.3 nM; in test [3] (1 mM putrescine substrate), 4200 nM.
With `Cc1cc(-c2cc(C)c3c(c2)CCC(=O)N3)cnc1-n1cnn(CC(CN)=C(F)F)c1=O` [Example 73, 6-[6-[1-[2-(aminomethyl)-3,3-difluoro-allyl]-5-oxo-1,2,4-triazol-4-yl]-5-methyl-3-pyridyl]-8-methyl-3,4-dihydro-1H-quinolin-2-one Trifluoroacetate], the IC50 in test [1] (0.5 mM tyramine) was more than 100000 nM; in test [2] (1 mM benzylamine), 7200 nM; on recombinant human VAP-1 (setting [5]), 0.3 nM; in test [3] (1 mM putrescine), 6100 nM.
On the same counts, the results for `CCn1cc(-c2cc(C)c(Cn3cnn(CC(CN)=C(F)F)c3=O)s2)cn1` [Example 159, 2-[2-(aminomethyl)-3,3-difluoro-allyl]-4-[[5-(1-ethylpyrazol-4-yl)-3-methyl-2-thienyl]methyl]-1,2,4-triazol-3-one Trifluoroacetate] are more than 100000 nM, more than 100000 nM, 5.2 nM and 52000 nM.
In the case of `NCC(Cn1ncn(Cc2cc3cc(-c4ccc5c(c4)OCO5)ccc3s2)c1=O)=C(F)F` [Example 209, 2-[2-(aminomethyl)-3,3-difluoro-allyl]-4-[[5-(1,3-benzodioxol-5-yl)benzothiophen-2-yl]methyl]-1,2,4-triazol-3-one Trifluoroacetate], the concentration for half-maximal inhibition (IC50) was more than 100000 nM in test [1] (0.5 mM tyramine substrate), 5180 nM in test [2] (1 mM benzylamine substrate), 4.3 nM at recombinant human VAP-1 (setting [4]) and 93700 nM in test [3] (1 mM putrescine substrate).
On the same counts, the results for `NCC(Cn1ncn(Cc2ccc(-c3cn[nH]c3)s2)c1=O)=C(F)F` [Example 292, 2-[2-(aminomethyl)-3,3-difluoro-allyl]-4-[[5-(1H-pyrazol-4-yl)-2-thienyl]methyl]-1,2,4-triazol-3-one Trifluoroacetate] are 86200 nM, more than 100000 nM, 2.7 nM and more than 100000 nM.
Regarding `CS(=O)(=O)c1ccc(-c2ccc(-n3cnn(CC(CN)=C(F)F)c3=O)c(F)c2)cc1` [Example 31, 2-[2-(aminomethyl)-3,3-difluoro-allyl]-4-[2-fluoro-4-(4-methylsulfonylphenyl)phenyl]-1,2,4-triazol-3-one Trifluoroacetate], the IC50 in test [1] (0.5 mM tyramine) was more than 100000 nM; in test [2] (1 mM benzylamine) it was 870 nM; on recombinant human VAP-1 (setting [5]), 0.2 nM; in test [3] (1 mM putrescine), 59 nM.
On the same counts, the results for `NCC(Cn1ncn(Cc2ccc(C#Cc3ccc4c(n3)OCCN4)s2)c1=O)=C(F)F` [Example 168, 2-[2-(aminomethyl)-3,3-difluoro-allyl]-4-[[5-[2-(2,3-dihydro-1H-pyrido[2,3-b][1,4]oxazin-6-yl)ethynyl]-2-thienyl]methyl]-1,2,4-triazol-3-one Ditrifluoroacetate] are more than 10000 nM, 45000 nM, 1 nM and more than 100000 nM.
